Experimental data as given in publication PMC8659278, “Dianthiamides A–E, Proline-Containing Orbitides from Dianthus chinensis” (Molecules, 2021).
pIC50: −log10 of the molar value. Like-named read-outs stand apart in the source and are kept apart here. Peptide text beside a SMILES is read from it.

Tested on: human non-small cell lung cancer A549 cells
Test: MTT cytotoxicity assay, A549 cells
Type: cell-based
Method: Human non-small cell lung cancer A549 and human stomach adenocarcinoma MKN-28 cells were purchased from the American Type Culture Collection (ATCC; Manassas, VA, USA). […] Docetaxel was used as a positive control with an IC50 value of 0.08 μM on A549 cells.

CC[C@H](C)[C@@H]1NC(=O)[C@@H]2CCCN2C(=O)[C@@H]2CCCN2C(=O)[C@H](CC(C)C)NC(=O)[C@H](Cc2ccccc2)NC(=O)CNC(=O)[C@H](CC(N)=O)NC1=O [dianthiamide A, cyclo-(Gly^1-L-Phe^2-L-Leu^3-L-trans-Proa^4-L-cis-Prob^5-L-Ile^6-L-Asn^7)] (cyclo(GFLPPIN))
pIC50 (human, 48 h): 4.32

CC(=O)O[C@@]12CO[C@@H]1C[C@H](O)[C@@]1(C)C(=O)[C@H](O)C3=C(C)[C@@H](OC(=O)[C@H](O)[C@@H](NC(=O)OC(C)(C)C)c4ccccc4)C[C@@](O)([C@@H](OC(=O)c4ccccc4)[C@H]21)C3(C)C [docetaxel]
pIC50 (Homo sapiens, A549, MTT assay, 5 × 10^3 cells/well, 48 h incubation, tested 5–200 µM, absorbance 540 nm, read-out: cytotoxic activity against A549 cell line, IC50): 7.10
